A word on the EC50: it is the concentration at which the effect is half-maximal.

The structures appear in SMILES notation. Bounds are passed on as bounds.

EC50 and Emax data for 24 compounds are collected here from patent US8389552B2, “(S)-6-(2-(4-(cyclobutylsulfonyl)-1H-imidazol-1-yl)-3-cyclopentylpropanamido)nicotinic acid useful as a glucokinase activator” (Pfizer Inc., priority 2009, dated 2013).

The target of this assay is T1, Full-length glucokinase (beta cell isoform) (Homo sapiens, UniProt P35557).
T1 construct: Full-length glucokinase (beta cell isoform) was His-tagged at N-terminus; His tag (N); made in house; host or cells: E. coli BL21(DE3), pBCGK vector
T1 sequence (P35557 1-465): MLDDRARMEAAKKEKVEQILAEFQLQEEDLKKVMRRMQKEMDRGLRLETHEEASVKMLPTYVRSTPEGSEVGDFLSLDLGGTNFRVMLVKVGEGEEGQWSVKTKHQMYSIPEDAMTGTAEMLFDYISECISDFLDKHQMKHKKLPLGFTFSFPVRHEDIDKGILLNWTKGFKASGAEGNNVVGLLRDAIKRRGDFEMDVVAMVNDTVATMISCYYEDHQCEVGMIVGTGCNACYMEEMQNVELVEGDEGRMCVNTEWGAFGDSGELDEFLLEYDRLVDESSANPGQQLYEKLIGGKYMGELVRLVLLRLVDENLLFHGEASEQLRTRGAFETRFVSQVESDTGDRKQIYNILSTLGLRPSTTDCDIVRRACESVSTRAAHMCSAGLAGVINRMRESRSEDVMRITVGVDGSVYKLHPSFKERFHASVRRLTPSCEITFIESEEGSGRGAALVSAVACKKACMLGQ
The experiment in a line: Glucokinase activation assay (PK/LDH-coupled, NADH depletion at 340 nm). To be noted: 5 mM glucose, single value or range where N>1; for EC50: 2.5 mM ATP, pH 7.1, room temperature, read-out: EC50; for Emax: % max activation = (Va/Vo−1)×100 from fit, pH 7.1, read-out: Maximum Activation (%). The assay is classed as biochemical. Here is the method: Full-length glucokinase (beta cell isoform) was His-tagged at N-terminus and purified by a Ni column followed by size exclusion chromatography. A 320 mL column was packed in house using Superdex75 (Amersham Pharmacia, Carlsbad, Calif.) preparation grade resin. Glucose was obtained from Calbiochem (San Diego, Calif.) and other reagents were purchased from Sigma-Aldrich (St. Louis, Mo.).
All assays were performed in a Corning 384-well plate using Spectramax PLUS spectrophotometer (Molecular Devices, Sunnyvale, Calif.) at room temperature. The final assay volume was 40 ∥L. The buffer conditions used in this assay were as follows: 50 mM HEPES, 5 mM glucose, 2.5 mM ATP, 3.5 mM MgCl2, 0.7 mM NADH, 2 mM dithiothreitol, 1 unit/mL pyruvate kinase/lactate dehydrogenase (PK/LDH), 0.2 mM phosphoenolpyruvate, and 25 mM KCl. The buffer pH was 7.1. The test compound in dimethylsulfoxide solution was added to the buffer and mixed by a plate shaker for 7.5 minutes. The final concentration of dimethylsulfoxide introduced into the assay was 0.25%.
Glucokinase was added to the buffer mixture to initiate the reaction in the presence and absence of compound. The reaction was monitored by absorbance at 340 nm due to the depletion of NADH. The initial reaction velocity was measured by the slope of a linear time course of 0-300 seconds. The percentage of maximum activation was calculated by the following equation: % Maximum Activation=(Va/Vo−1)×100; wherein each of Va and Vo is defined as the initial reaction velocity in the presence and absence of the tested compound, respectively.
The glucokinase activities were measured as a function of compound concentrations.

In the case of `Cc1cnc(NC(=O)[C@H](CC2CCCC2)n2ccc(C(F)(F)F)n2)cn1` [Example 70, (S)-3-cyclopentyl-N-(5-methylpyrazin-2-yl)-2-(3-(trifluoromethyl)-1H-pyrazol-1-yl)propanamide], the EC50 was found to be 24 µM and the Emax amounted to 124%.

For `CN(C)C(=O)c1cnn([C@@H](CC2CCCC2)C(=O)Nc2ccn(C)n2)c1` [Example 71, (S)-1-(3-cyclopentyl-1-(1-methyl-1H-pyrazol-3-ylamino)-1-oxopropan-2-yl)-N,N-dimethyl-1H-pyrazole-4-carboxamide], the EC50 is above 30 µM.

In the case of `Cc1ccc(NC(=O)[C@H](CC2CCCC2)n2cc(C(=O)N(C)C)cn2)nc1` [Example 72, (S)-1-(3-cyclopentyl-1-(5-methylpyridin-2-ylamino)-1-oxopropan-2-yl)-N,N-dimethyl-1H-pyrazole-4-carboxamide], the EC50 is above 100 µM.

In the case of `Cc1cnc(NC(=O)[C@H](CC2CCCC2)n2cc(C(=O)N(C)C)cn2)cn1` [Example 73, (S)-1-(3-cyclopentyl-1-(5-methylpyrazin-2-ylamino)-1-oxopropan-2-yl)-N,N-dimethyl-1H-pyrazole-4-carboxamide], the EC50 was above 100 µM.

As to `Cc1cnc(NC(=O)[C@H](CC2CCOCC2)n2cnc(C(F)(F)F)c2)cn1` [Example 74, (S)—N-(5-methylpyrazin-2-yl)-3-(tetrahydro-2H-pyran-4-yl)-2-(4-(trifluoromethyl)-1H-imidazol-1-yl)propanamide], the EC50 amounted to 8.7 µM and the Emax was determined as 115%.

Take `Cc1ccc(NC(=O)[C@H](CC2CCOCC2)n2cnc(C(F)(F)F)c2)nc1` [Example 75, (S)—N-(5-methylpyridin-2-yl)-3-(tetrahydro-2H-pyran-4-yl)-2-(4-(trifluoromethyl)-1H-imidazol-1-yl)propanamide]: the EC50 was 0.8 to 2 µM and the Emax lay within 51 to 78%.

Take `Cn1ccc(NC(=O)[C@H](CC2CCOCC2)n2cnc(C(F)(F)F)c2)n1` [Example 76, (S)—N-(1-methyl-1H-pyrazol-3-yl)-3-(tetrahydro-2H-pyran-4-yl)-2-(4-(trifluoromethyl)-1H-imidazol-1-yl)propanamide]: the EC50 came to 18 µM and the Emax is 138%.

On to `O=C(Nc1nc2cccnc2s1)[C@H](CC1CCOCC1)n1cnc(C(F)(F)F)c1` [Example 77, (S)-3-(tetrahydro-2H-pyran-4-yl)-N-(thiazolo[5,4-b]pyridin-2-yl)-2-(4-(trifluoromethyl)-1H-imidazol-1-yl)propanamide], for which the EC50 was determined as 18 µM and the Emax worked out at 139%.

`COc1ccc2nc(NC(=O)[C@H](CC3CCOCC3)n3cnc(C(F)(F)F)c3)sc2n1` [Example 78, (S)—N-(5-methoxythiazolo[5,4-b]pyridin-2-yl)-3-(tetrahydro-2H-pyran-4-yl)-2-(4-(trifluoromethyl)-1H-imidazol-1-yl)propanamide]: the EC50 is 4.2 to 4.4 µM and the Emax was in the range of 109 to 114%.

For `Cn1ccc(NC(=O)[C@H](CC2CCCC2)n2nnc(S(C)(=O)=O)n2)n1` [Example 79, (S)-3-cyclopentyl-N-(1-methyl-1H-pyrazol-3-yl)-2-(5-(methylsulfonyl)-2H-tetrazol-2-yl)propanamide], the EC50 was determined as 40 µM and the Emax came to 99%.

Consider `Cc1ccc(NC(=O)[C@H](CC2CCCC2)n2nnc(S(C)(=O)=O)n2)nc1` [Example 80, (S)-3-cyclopentyl-N-(5-methylpyridin-2-yl)-2-(5-(methylsulfonyl)-2H-tetrazol-2-yl)propanamide], for which the EC50 was 32 µM and the Emax came to 86%.

With `Cc1cnc(NC(=O)[C@H](CC2CCCC2)n2nnc(S(C)(=O)=O)n2)cn1` [Example 81, (S)-3-cyclopentyl-N-(5-methylpyrazin-2-yl)-2-(5-(methylsulfonyl)-2H-tetrazol-2-yl)propanamide], the EC50 is above 50 µM.

For the compound `Cc1ccc(NC(=O)[C@H](Cn2cccn2)n2cnc(C(F)(F)F)c2)nc1` [Example 83, (S)—N-(5-methylpyridin-2-yl)-3-(1H-pyrazol-1-yl)-2-(4-(trifluoromethyl)-1H-imidazol-1-yl)propenamide], the EC50 is above 100 µM.

Take `O=C(Nc1cnccn1)[C@H](CC1CCCC1)n1cnc(C(F)(F)F)n1` [Example 84, (S)-3-cyclopentyl-N-(pyrazin-2-yl)-2-(3-(trifluoromethyl)-1H-1,2,4-triazol-1-yl)propanamide]: the concentration giving a half-maximal response (EC50) turned out to be 10 µM and the Emax was 171%.

In the case of `Cc1ccc(NC(=O)[C@H](CC2CCCC2)n2cnc(C(F)(F)F)n2)nc1` [Example 85, (S)-3-cyclopentyl-N-(5-methylpyridin-2-yl)-2-(3-(trifluoromethyl)-1H-1,2,4-triazol-1-yl)propanamide], the EC50 was 0.8 to 1 µM and the Emax is 125 to 147%.

`O=C(O)c1ccc(NC(=O)[C@H](CC2CCCC2)n2cnc(C(F)(F)F)n2)nc1` [Example 88, (S)-6-(3-cyclopentyl-2-(3-(trifluoromethyl)-1H-1,2,4-triazol-1-yl)propanamido)nicotinic acid]: the EC50 was 0.7 µM and the Emax was 150%.

Consider `O=C(O)Cn1ccc(NC(=O)[C@H](CC2CCCC2)n2cnc(C(F)(F)F)n2)n1` [Example 89, (S)-2-(3-(3-cyclopentyl-2-(3-(trifluoromethyl)-1H-1,2,4-triazol-1-yl)propanamido)-1H-pyrazol-1-yl)acetic acid], for which the EC50 worked out at 45 µM and the Emax is 183%.

Take `O=C(O)c1ccc(NC(=O)[C@H](CC2CCCCC2)n2cnc(C(F)(F)F)c2)nc1` [Example 90, (S)-6-(3-cyclohexyl-2-(4-(trifluoromethyl)-1H-imidazol-1-yl)propanamido)nicotinic acid]: the EC50 lay in the range of 0.2 to 0.3 µM and the Emax was 120 to 138%.

`Cc1ccc(NC(=O)[C@H](CC2CCCC2)n2cc(C(F)(F)F)nc2C)nc1` [Example 91, (S)-3-cyclopentyl-2-(2-methyl-4-(trifluoromethyl)-1H-imidazol-1-yl)-N-(5-methylpyridin-2-yl)propanamide]: the EC50 is 0.4 µM and the Emax is 120%.

For the compound `Cc1nc(C(F)(F)F)cn1[C@@H](CC1CCCC1)C(=O)Nc1ccc(C(=O)O)cn1` [Example 92, (S)-6-(3-cyclopentyl-2-(2-methyl-4-(trifluoromethyl)-1H-imidazol-1-yl)propanamido)nicotinic acid], the EC50 is 0.4 to 1.2 µM and the Emax lay within 158 to 168%.

Regarding `Cc1ccc(NC(=O)[C@H](CC2CCCC2)n2cc(C)c(C(F)(F)F)n2)nc1` [Example 93, (S)-3-cyclopentyl-2-(4-methyl-3-(trifluoromethyl)-1H-pyrazol-1-yl)-N-(5-methylpyridin-2-yl)propanamide], the EC50 is 4 to 5.4 µM and the Emax was 92 to 95%.

Regarding `Cc1cn([C@@H](CC2CCCC2)C(=O)Nc2ccc(C(=O)O)cn2)nc1C(F)(F)F` [Example 95, (S)-6-(3-cyclopentyl-2-(4-methyl-3-(trifluoromethyl)-1H-pyrazol-1-yl)propanamido)nicotinic acid], the EC50 was 8 µM and the Emax amounted to 128%.

`Cc1ccc(NC(=O)[C@H](CC2CCCC2)n2cc(C(F)(F)F)c(C)n2)nc1` [Example 96, (S)-3-cyclopentyl-2-(3-methyl-4-(trifluoromethyl)-1H-pyrazol-1-yl)-N-(5-methylpyridin-2-yl)propanamide]: the EC50 is 2.8 µM and the Emax is 123%.

With `Cc1ccc(NC(=O)[C@H](CC2CCCC2)n2ncc(C(F)(F)F)c2C)nc1` [Example 97, (S)-3-cyclopentyl-2-(5-methyl-4-(trifluoromethyl)-1H-pyrazol-1-yl)-N-(5-methylpyridin-2-yl)propanamide], the EC50 amounted to 28 µM and the Emax is 136%.
